# Target: T1, recombinant human mPGES-1 (Homo sapiens, UniProt O14684)
# T1 construct: made in house; host or cells: Rosetta E. coli (membrane/microsome fraction)
# T1 sequence (O14684 1-152): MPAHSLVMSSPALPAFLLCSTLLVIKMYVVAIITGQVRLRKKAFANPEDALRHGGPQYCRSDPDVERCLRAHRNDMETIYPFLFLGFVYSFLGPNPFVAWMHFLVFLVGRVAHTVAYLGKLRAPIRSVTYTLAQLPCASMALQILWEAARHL
# Assay: Assay A: mPGES-1 enzyme assay (HTRF detection of PGE2)
# Format: biochemical
# Settings: biological assay A; microsomes from E. coli expressing recombinant human mPGES-1; read-out: mPGES-1 inhibitory effect IC50
# Text: The aim of this assay is to determine the affinity of a test compound for the mPGES-1 enzyme.
# • 1. Riendeau, D., R. Aspiotis, D. Ethier, Y. Gareau, E. Grimm, J. Guay, S. Guiral, H. Juteau, J. Mancini, N. Methot, J. Rubin, and R. Friesen, Inhibitors of the inducible microsomal prostaglandin E2 synthase (mPGES-1) derived from MK-886. Bioorg Med Chem Lett, 2005. 15(14): p. 3352-3355. • 2. Cote, B., L. Boulet, C. Brideau, D. Claveau, D. Ethier, R. Frenette, M. Gagnon, A. Giroux, J. Guay, S. Guiral, J. Mancini, E. Martins, F. Masse, N. Methot, D. Riendeau, J. Rubin, D. Xu, H. Yu, Y. Ducharme, and R. Friesen, Substituted phenanthrene imidazoles as potent, selective, and orally active mPGES-1 inhibitors. Bioorg Med Chem Lett, 2007. 17(24): p. 6816-6820. Assay A: mPGES-1 Enzyme Assay List of Reagents Used: • Glutathione (Sigma, G-4251) • Freeze culture in Rosetta E coli expression strain. • LB growth media with Ampillicillin (Amp) final concentration in culture 50 μg/mL • Chloroamphenicol stock 34 mg/mL (chloro) final concentration in culture 34 μg/mL • Sterile growth flasks for 500 mL-1 liter cultures • 0.1 M KP, buffer pH 7.4 • 9.25% HCl • PGH2 (0.25 mM) • Fe (II) Cl2 tetrahydrate, 99% (Sigma, 220229) • 384-well plate with compounds • 96-well plate, polypropylene (Thermo fast 96 skirted VWR) • 384-well plate polypropylene PCR plate (Greiner 785201) • Greiner 384-well plate pp (In vitro cat. no. 781280) • Adhesive sealing film for 96-well plates (Sigma-Aldrich) • Aluminium foil (PCR foil, 310-0030-127-471 from Labora) • PBS (GIBCO 14040) • Prostaglandin E2 Assay (Cisbio, cat. no. 62P2APEC) • Biomek FX robot (Beckman Coulter) • Biomek NX robot (Beckman Coulter) • Multidrop; micro or combi (ThermoLabsystems) • Plate reader: Safire2 (Tecan)
# Microsomes from Rosetta E. coli bacteria expressing recombinant human mPGES-1 can be derived as described below:
# Inoculate 5 mL LB with Amp and Chloro with bacteria from freeze culture. Incubate overnight at 37° C. with 200 rpm. Thereafter, inoculate 500-800 mL LB containing Amp and Chloro with the 5 mL on culture and grow to OD640 of 0.6-0.8. Chill the culture to +4° C. before induction. Induce the culture with IPTG at a final concentration of 400 μM. Express the protein at room temp 18-23° C. with 200 rpm shaking overnight.
# The following steps can be performed on the following day: • 1. Spin down the cells in 250 mL centrifuge flasks for 15 min at 7000 rpm • 2. Dissolve the pellet from 250 mL culture in 12.5 mL homogenization buffer • 3. Disintegrate the cells by sonication, 4×10 seconds at 35% amplitude • 4. Add 2.5 mL MgCl2 (100 mM) and DNase 12.5 μL (0.8 mg/mL) and incubate on ice for 30 min • 5. Spin down the bacteria debris and save the supernatant, 7000 rpm for 15 min • 6. Isolate the protein containing membranes in the supernatant by ultracentrifugation 45000×g for 1 hour. • 7. Discard the supernatant and dissolve the pellet in 20 mM KPi buffer and aliquot the enzyme and store aliquots at −80° C.
# Before each experiment is performed an aliquot of the enzyme is thawed and it can then be dissolved in 0.1 M KP, pH 7.4 buffer containing 2.5 mM GSH. 50 μL of this enzyme solution is subsequently dispensed in a 384-well plate at room temperature. 0.5 μL of the inhibitor dissolved in DMSO is thereafter added to each well and incubated for 25 minutes at room temperature. Subsequently, 2 μL of PGH2 dissolved in an appropriate solvent is added to each well and after one minute at room temperature, the acidified stop solution containing FeCl2 is added. 4 μL of the total volume is transferred to a separate plate and diluted 750-fold in two separate steps before quantification of PGE2.
# In order to quantitate the amount of PGE2 that has been formed, a homogenous time resolved fluorescent (HTRF) detection of PGE2 can be performed by the use of a commercially available kit from CisBio essentially according to the manufacturer's protocol. […]
row,SMILES,IC50
1,"CN(C)C(=O)C1CCCN1c1cc2[nH]c(Nc3cc(CNC(=O)C(C)(C)C)ccc3Cl)nc2cc1Cl (centres unmarked) [Example 6, N-{4-Chloro-3-[5-chloro-6-(2-dimethylcarbamoyl-pyrrolidin-1-yl)-1H-benzimidazol-2-ylamino]-benzyl}-2,2-dimethyl-propionamide]",0.215 µM
2,O=C(NCc1ccc(Cl)c(Nc2nc3cc(N4CCCC4)ccc3[nH]2)c1)c1ccc(OCc2ccccc2)cc1 [Example 21],0.03 µM
3,"CC(C)(C)C(=O)NCc1ccc(Cl)c(Nc2nc3cc(N4CCC(F)(F)C4)c(Cl)cc3[nH]2)c1 [Example 2, N-{4-Chloro-3-[6-chloro-5-(3,3-difluoropyrrolidin-1-yl)-1H-benzo[d]imidazol-2-ylamino]benzyl}-2,2-dimethyl-propionamide]",0.019 µM
4,Cn1c(Nc2cc(CNC(=O)C3(C(F)(F)F)CC3)ccc2Cl)nc2cc(Cl)c(N3CCOCC3)cc21 [Example 10],0.031 µM
5,Cn1c(Nc2cc(CNC(=O)C3(C(F)(F)F)CC3)ccc2Cl)nc2cc(F)c(N3CCC(C)(C)CC3)c(F)c21 [Example 85],0.02 µM
6,CC(C(=O)NCc1ccc(Cl)c(Nc2nc3cc(Cl)c(N4CCCC(C(F)(F)F)C4)cc3n2C)c1)C(F)(F)F (centres unmarked) [Example 13],0.0026 µM
7,O=C(NCc1ccc(Cl)c(Nc2nc3cc(Cl)c(N4CCCC(C(F)(F)F)C4)cc3[nH]2)c1)C1(C(F)(F)F)CC1 (centres unmarked) [Example 72],0.011 µM
8,Cn1c(Nc2cc(CNC(=O)c3c(F)cccc3C(F)(F)F)ccc2Cl)nc2cc(Cl)c(N3CCCC(C(F)(F)F)C3)cc21 (centres unmarked) [Example 69],0.009 µM
9,"O=C(NCc1ccc(Cl)c(Nc2nc3cc(Cl)c(N4CCC[C@@H]4CO)cc3[nH]2)c1)C1(C(F)(F)F)CC1 [Example 9, (R)—N-{4-Chloro-3-[5-chloro-6-(2-hydroxymethyl-pyrrolidin-1-yl)-1H-benzimidazol-2-ylamino]-benzyl}-1-trifluoromethyl-cyclopropanecarboxamide]",0.143 µM
10,CN(C)CCn1c(Nc2cc(CNC(=O)C3(C(F)(F)F)CC3)ccc2Cl)nc2cc(Cl)c(N3CCC(C(F)(F)F)CC3)cc21 [Example 80],0.054 µM
11,"CC(C)(C)C(=O)NCc1ccc(Cl)c(Nc2nc3cc(Cl)c(N4CCC(C#N)C4)cc3[nH]2)c1 (centres unmarked) [Example 8, N-{4-Chloro-3-[5-chloro-6-(3-cyano-pyrrolidin-1-yl)-1H-benzimidazol-2-ylamino]-benzyl}-2,2-dimethyl-propionamide]",0.106 µM
12,"Cn1c(Nc2cc(CNC(=O)C3(C(F)(F)F)CC3)ccc2Cl)nc2cc(Cl)c(N3CCC(c4ccccc4)CC3)cc21 [Example 76, N-{4-Chloro-3-[5-chloro-1-methyl-6-(4-phenyl-piperidin-1-yl)-1H-benzimidazol-2-ylamino]-benzyl}-1-trifluoromethyl-cyclopropanamide]",0.0031 µM
13,Cn1c(Nc2cc(CNC(=O)C3(C)COC3)ccc2Cl)nc2cc(Cl)c(N3CCCC(C(F)(F)F)C3)cc21 (centres unmarked) [Example 66],0.01 µM
14,CC(=O)N1CCN(c2cc3c(cc2Cl)nc(Nc2cc(CNC(=O)C4(C(F)(F)F)CC4)ccc2Cl)n3C)CC1 [Example 73],0.061 µM
15,CC(C)(C)C(=O)NCc1ccc(Cl)c(Nc2nc3cc(N4CCCC4)ccc3[nH]2)c1 [Example 20],> 0.1 µM

# The next lines start with the values.
row,IC50,SMILES
1,0.002 µM,Cn1c(Nc2cc(CNC(=O)c3c(F)cccc3Cl)ccc2C(F)(F)F)nc2cc(Cl)c(N3CCC(C(F)(F)F)CC3)cc21 [Example 103]
2,0.017 µM,"N#Cc1c(N2CCCC(C(F)(F)F)C2)ccc2nc(Nc3cc(CNC(=O)C4(C(F)(F)F)CC4)ccc3Cl)[nH]c12 (centres unmarked) [Example 93, N-{4-Chloro-3-[4-cyano-5-(3-trifluoromethyl-piperidin-1-yl)-1H-benzimidazol-2-ylamino]-benzyl}-1-trifluoromethyl-cyclopropanamide]"
3,0.026 µM,N#Cc1cc2nc(Nc3cc(CNC(=O)C4(C(F)(F)F)CC4)ccc3Cl)[nH]c2cc1N1CCCC1 [Example 127]
4,0.0053 µM,O=C(NCc1ccc(Cl)c(Nc2nc3cc(Cl)c(N4CCC(C(F)(F)F)CC4)cc3n2CC2CC2)c1)C1(C(F)(F)F)CC1 [Example 88]
5,0.0024 µM,Cn1c(Nc2cc(CNC(=O)C3CC3)ccc2C(F)(F)F)nc2cc(Cl)c(N3CCC(C(F)(F)F)CC3)cc21 [Example 102]
6,0.0041 µM,Cn1c(Nc2cc(CNC(=O)C(C)(F)F)ccc2Cl)nc2cc(Cl)c(N3CCN(c4ccc(C(F)(F)F)cc4)CC3)cc21 [Example 96]
7,0.004 µM,"Cn1c(Nc2cc(CNS(=O)(=O)C(C)(C)C)ccc2Cl)nc2cc(Cl)c(N3CCC(C(F)(F)F)CC3)cc21 [Example 99, N-(4-Chloro-3-(5-chloro-1-methyl-6-(4-trifluoromethyl-piperidin-1-yl)-1H-benzo[d]imidazol-2-ylamino)benzyl)-2-methylpropane-2-sulfonamide]"
8,0.032 µM,CC(C)N1CCN(c2cc3c(cc2Cl)nc(Nc2cc(CNC(=O)C4(C(F)(F)F)CC4)ccc2Cl)n3C)CC1 [Example 125]
9,0.0022 µM,Cn1c(Nc2cc(CNC(=O)C3(C(F)(F)F)CC3)ccc2Cl)nc2cc(Cl)c(N3CCN(c4ccccc4)CC3)cc21 [Example 90]
10,0.0079 µM,COC[C@@H]1CCCN1c1cc2[nH]c(Nc3cc(CNC(=O)C4(C)CCCCC4)ccc3Cl)nc2cc1Cl [Example 122]
11,0.0026 µM,Cn1c(Nc2cc(CNC(=O)C3(C(F)(F)F)CC3)ccc2Cl)nc2cc(Cl)c(N3CCCC(C(F)(F)F)C3)cc21 (centres unmarked) [Example 124]

# From US8466186B2, “Compounds” (Boehringer Ingelheim International GmbH, priority 2010, dated 2013)
